According to patent US20080306076A1, “MODULATION OF CHEMOSENSORY RECEPTORS AND LIGANDS ASSOCIATED THEREWITH” (SENOMYX, INC., priority 2007, published 2008):
Substitutions are numbered along the chain they refer to.

What was measured:
[1] = molecular target: T1, hT1R1 R277A (Homo sapiens, UniProt Q7RTX1, R277A); assay: Mutagenesis study, hT1R1 mutant R277A; type: cell-based; details: R277 mutation
T1 construct: expressed in transfected cells; host or cells: HEK293, transient transfection
T1 sequence (Q7RTX1 21-841 R277A): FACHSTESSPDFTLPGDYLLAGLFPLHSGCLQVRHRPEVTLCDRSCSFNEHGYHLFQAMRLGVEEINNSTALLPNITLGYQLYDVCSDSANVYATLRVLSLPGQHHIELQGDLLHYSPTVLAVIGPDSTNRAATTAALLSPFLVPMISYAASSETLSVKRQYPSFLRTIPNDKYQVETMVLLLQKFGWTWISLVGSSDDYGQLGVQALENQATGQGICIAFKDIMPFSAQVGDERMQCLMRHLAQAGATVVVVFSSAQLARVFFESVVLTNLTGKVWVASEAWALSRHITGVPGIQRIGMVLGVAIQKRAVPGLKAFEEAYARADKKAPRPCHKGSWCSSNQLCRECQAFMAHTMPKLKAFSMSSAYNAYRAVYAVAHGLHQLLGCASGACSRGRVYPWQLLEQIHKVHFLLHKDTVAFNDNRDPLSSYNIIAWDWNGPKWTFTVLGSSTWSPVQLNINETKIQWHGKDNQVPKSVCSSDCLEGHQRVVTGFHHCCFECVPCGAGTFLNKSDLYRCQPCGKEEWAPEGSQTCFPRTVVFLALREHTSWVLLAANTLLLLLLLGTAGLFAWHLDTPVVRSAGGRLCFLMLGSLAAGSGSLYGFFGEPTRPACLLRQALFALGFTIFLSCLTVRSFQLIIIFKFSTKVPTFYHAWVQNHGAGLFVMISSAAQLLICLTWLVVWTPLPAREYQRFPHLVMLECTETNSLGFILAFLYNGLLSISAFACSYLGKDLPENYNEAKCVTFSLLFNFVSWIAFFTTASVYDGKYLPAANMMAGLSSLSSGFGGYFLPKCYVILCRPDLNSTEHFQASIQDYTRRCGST
T1 sequence (Q923K1 21-858 partner): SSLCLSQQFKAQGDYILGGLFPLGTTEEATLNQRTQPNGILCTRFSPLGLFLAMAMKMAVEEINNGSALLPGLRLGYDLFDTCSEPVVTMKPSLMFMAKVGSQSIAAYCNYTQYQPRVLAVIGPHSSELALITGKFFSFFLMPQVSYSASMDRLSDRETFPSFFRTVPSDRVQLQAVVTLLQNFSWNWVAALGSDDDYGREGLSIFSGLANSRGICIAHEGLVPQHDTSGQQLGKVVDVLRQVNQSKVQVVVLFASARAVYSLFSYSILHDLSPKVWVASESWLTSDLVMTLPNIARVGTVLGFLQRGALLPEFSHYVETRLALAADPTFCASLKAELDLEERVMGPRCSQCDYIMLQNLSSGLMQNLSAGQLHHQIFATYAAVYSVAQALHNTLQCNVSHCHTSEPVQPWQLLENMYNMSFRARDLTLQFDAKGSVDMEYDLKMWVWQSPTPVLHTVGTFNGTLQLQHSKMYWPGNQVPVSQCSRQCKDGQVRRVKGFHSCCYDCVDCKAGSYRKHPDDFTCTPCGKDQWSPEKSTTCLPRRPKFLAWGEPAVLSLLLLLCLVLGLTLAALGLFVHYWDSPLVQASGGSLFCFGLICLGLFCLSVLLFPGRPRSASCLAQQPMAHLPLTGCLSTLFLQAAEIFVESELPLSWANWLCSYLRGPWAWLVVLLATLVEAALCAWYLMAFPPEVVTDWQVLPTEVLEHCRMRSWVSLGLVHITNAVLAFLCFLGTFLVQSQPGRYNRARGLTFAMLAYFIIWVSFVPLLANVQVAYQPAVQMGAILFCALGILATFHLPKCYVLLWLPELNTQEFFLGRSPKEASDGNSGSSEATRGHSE
Text: (§1) In order to further define the interaction sites of umami stimuli, we performed site-directed mutagenesis on human T1R1 VFT. The mutagenesis was done using the routine PCR-based method. […] were transiently transfected into HEK293 cell together with the rat T1R3 wild type cDNA, and the transfected cells were characterized using an automated FLIPR machine or a calcium imaging system as described in our previous patent applications.

[2] = molecular target: T2, hT1R1 H308A (Homo sapiens, UniProt Q7RTX1, H308A); assay: Mutagenesis study, hT1R1 mutant H308A; type: cell-based; details: H308 mutation
T2 construct: expressed in transfected cells; host or cells: HEK293, transient transfection
T2 sequence (Q7RTX1 21-841 H308A): T1 sequence (Q7RTX1 21-841 R277A) with A257R, H288A
T2 sequence (Q923K1 21-858 partner): T1 sequence (Q923K1 21-858 partner)
Text: as §1

SMILES: Nc1nc2c(ncn2[C@@H]2O[C@H](COP(=O)(O)O)[C@@H](O)[C@H]2O)c(=O)[nH]1 [GMP, guanosine-5′-monophosphate]
- enhancement activity of GMP [1]: similarly affected
- enhancement activity of GMP [2]: similarly affected
